{"source": "patent US7351737B2", "about": "“4-[(8-substituted)-6-chromanoyl]-and 4-[8-substituted)-chroman-6-YL-ethynyl]-benzoic and phenylacetic acids, their esters and salts having cytochrome P450RAI inhibitory activity” (Allergan, Inc., priority 2002, dated 2008)", "key": {"[1]": {"target": "T1, P450RAI-1 (Homo sapiens, UniProt O43174)", "T1 construct": "expressed in transfected cells; host or cells: HeLa", "T1 sequence (O43174 1-497)": "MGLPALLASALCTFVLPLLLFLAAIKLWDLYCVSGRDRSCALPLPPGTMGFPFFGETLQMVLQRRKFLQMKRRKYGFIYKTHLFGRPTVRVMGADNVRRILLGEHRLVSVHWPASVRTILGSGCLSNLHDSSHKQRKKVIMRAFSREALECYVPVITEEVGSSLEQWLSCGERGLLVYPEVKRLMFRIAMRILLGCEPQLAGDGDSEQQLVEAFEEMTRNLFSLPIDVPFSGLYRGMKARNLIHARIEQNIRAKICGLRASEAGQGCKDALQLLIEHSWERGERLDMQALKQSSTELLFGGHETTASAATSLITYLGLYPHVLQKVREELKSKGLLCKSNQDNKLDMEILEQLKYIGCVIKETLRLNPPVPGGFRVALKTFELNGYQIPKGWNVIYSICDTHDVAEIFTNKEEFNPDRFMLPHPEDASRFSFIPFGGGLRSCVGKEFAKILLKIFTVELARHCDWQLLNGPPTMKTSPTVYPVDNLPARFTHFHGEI", "experiment": "P450RAI-1 cell-based inhibitor assay ([3H]-RA metabolism, intact cells)", "conditions": "P450RAI-1 stably transfected HeLa cells, 3 hours at 37° C., all-trans-RA metabolism; read-out: P450RAI INHIBITION DATA RAI-1 Intact cells IC50", "method": "FIG. 1 is a schematic representation of the P450RAI cell based assay utilized to evaluate the ability of the compounds of the invention to inhibit the Cytochrome P450RAI enzyme.\nP450RAI-1 and P450RAI-2 Cell-Based Inhibitor Assay:\nP450RAI-1 stably transfected HeLa cells, or P450RAI-2 stably transfected HeLa cells, as applicable, are maintained in […] tissue culture dishes in Modified Eagle's Medium (MEM) containing 10% Fetal Bovine Serum (FBS) and 100 μg/ml hygromycin. Exponentially growing cells are harvested by incubating in trypsin. Cells are then washed with 1X Phosphate Buffered Saline (PBS) and plated in a 48-well plate at 5×10^5 cells in 0.2 ml MEM medium containing 10% FBS and 0.05 μCi [^3H]-RA in the presence or absence of increasing concentrations of the test compounds. The compounds are diluted in 100% DMSO and then added in triplicate wells at either 10, 1 or 0.1 μM final concentration. As a positive control for RA metabolism inhibition, cells are also incubated with ketoconazole at 100, 10 and 1 μM. Cells are incubated for 3 hours at 37° C. The retinoids are then extracted using the procedure of Bligh et al. (1959) Canadian Journal of Biochemistry 37, 911-917, modified by using methylenechloride instead of chloroform. The publication Bligh et al. (1959) Canadian Journal of Biochemistry 37, 911-917 is specifically incorporated herein by reference. The water soluble radioactivity is quantified using a β-scintillation counter. IC50 values represent the concentration of inhibitor required to inhibit all-trans-RA metabolism by 50 percent and are derived manually from log-transformed data."}, "[2]": {"target": "T2, RARβ (Homo sapiens, UniProt P10826)", "T2 sequence (P10826 1-455)": "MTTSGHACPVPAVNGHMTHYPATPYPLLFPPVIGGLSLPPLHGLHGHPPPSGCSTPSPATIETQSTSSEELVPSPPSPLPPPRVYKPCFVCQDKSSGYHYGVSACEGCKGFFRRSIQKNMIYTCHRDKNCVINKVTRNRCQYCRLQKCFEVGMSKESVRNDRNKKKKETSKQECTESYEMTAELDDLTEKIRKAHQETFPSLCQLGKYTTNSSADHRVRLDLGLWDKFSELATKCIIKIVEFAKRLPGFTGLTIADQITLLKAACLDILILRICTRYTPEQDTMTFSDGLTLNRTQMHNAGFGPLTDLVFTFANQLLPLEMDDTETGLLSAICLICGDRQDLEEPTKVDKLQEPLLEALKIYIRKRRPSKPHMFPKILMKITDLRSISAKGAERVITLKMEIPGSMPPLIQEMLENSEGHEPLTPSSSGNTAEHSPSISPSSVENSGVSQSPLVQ", "experiment": "ligand binding assay, RARβ", "conditions": "last item of cell, read-out: RAR β Kd", "source_text": "(§1) Assays described below measure the ability of a compound to bind to, and/or activate various retinoid receptor subtypes. When in these assays a compound binds to a given receptor subtype and activates the transcription of a reporter gene through that subtype, then the compound is considered an agonist of that receptor subtype. […] In the below described assays the ability of the compounds to bind to RARα, RARβ, RARγ, RXRα, RXRβ and RXRγ receptors, and the ability or inability of the compounds to activate transcription of a reporter gene through these receptor subtypes can be tested.\n(§2) A holoreceptor transactivation assay and a ligand binding assay which measure the antagonist/agonist like activity of the compounds of the invention, or their ability to bind to the several retinoid receptor subtypes, respectively, are described in published PCT Application No. WO WO93/11755 (particularly on pages 30-33 and 37-41) published on Jun. 24, 1993, the specification of which is also incorporated herein by reference. A detailed experimental procedure for holoreceptor transactivations has been described by Heyman et al. Cell 68, 397-406, (1992); Allegretto et al. J. Biol. Chem. 268, 26625-26633, and Mangelsdorf et al. The Retinoids: Biology, Chemistry and Medicine, pp 319-349, Raven Press Ltd., New York, which are expressly incorporated herein by reference. The results obtained in this assay are expressed in EC50 numbers, as they are also in the chimeric receptor transactivation assay. The results of ligand binding assay are expressed in Kd numbers. (See Cheng et al. Biochemical Pharmacology Vol. 22 pp 3099-3108, expressly incorporated herein by reference.)\nThe results of the ligand binding assay for several preferred compounds of the invention are included in Table 1."}, "[3]": {"target": "T3, RARγ (Homo sapiens, UniProt P13631)", "T3 sequence (P13631 185-419 limits assumed)": "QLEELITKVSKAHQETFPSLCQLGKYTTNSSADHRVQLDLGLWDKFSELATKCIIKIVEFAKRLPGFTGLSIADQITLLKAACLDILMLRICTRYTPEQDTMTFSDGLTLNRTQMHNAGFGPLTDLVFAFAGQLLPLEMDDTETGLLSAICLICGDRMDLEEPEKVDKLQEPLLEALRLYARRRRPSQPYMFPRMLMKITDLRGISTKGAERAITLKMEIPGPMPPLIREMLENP", "experiment": "chimeric receptor transactivation assay, RARγ", "type": "cell-based", "conditions": "for RAR γ (EFFICACY): value in brackets", "source_text": "as §1\nAs far as specific assays are concerned, a chimeric receptor transactivation assay which tests for agonist-like activity in the RARα, RARβ, and RARγ, receptor subtypes, and which is based on work published by Feigner P. L. and Holm M. (1989) Focus, 112 is described in detail in U.S. Pat. No. 5,455,265. The specification of U.S. Pat. No. 5,455,265 is hereby expressly incorporated by reference. The numeric results obtained with several preferred compounds of this invention in this assay are shown below in Table 1.\nas §2"}}}
{"smiles": "CC(=O)OCOC(=O)Cc1ccc(OC(=O)c2cc(C#N)c3c(c2)C(C)(C)CC(C)(C)O3)cc1F", "note": "[Compound 33, 8-Cyano-2,2,4,4-tetramethyl-chroman-6-carboxylic acid 4-acetoxymethoxycarbonylmethyl-3-fluoro-phenyl ester]", "values": [{"measurement": "IC50", "setting": "[1]", "value": 0.1, "unit": "µM"}, {"measurement": "Kd", "setting": "[2]", "value": "> 10", "unit": "µM"}]}
{"smiles": "C#Cc1cc(C(=O)Oc2ccc(CC(=O)OCC)cc2)cc2c1OC(C)(C)CC2(C)C", "note": "[Compound 2, 8-Ethynyl-2,2,4,4-tetramethyl-chroman-6-carboxylic acid 4-ethoxycarbonylmethyl-phenyl ester]", "values": [{"measurement": "IC50", "setting": "[1]", "value": 6, "unit": "µM"}, {"measurement": "Kd", "setting": "[2]", "value": "> 10", "unit": "µM"}]}
{"smiles": "C#Cc1cc(C(=O)Oc2ccc(CC(=O)OCOC(C)=O)c(F)c2)cc2c1OC(C)(C)CC2(C)C", "note": "[Compound 5, 8-Ethynyl-2,2,4,4-tetramethyl-chroman-6-carboxylic acid 4-acetoxymethoxycarbonylmethyl-3-fluoro-phenyl ester]", "values": [{"measurement": "IC50", "setting": "[1]", "value": 0.075, "unit": "µM"}, {"measurement": "Kd", "setting": "[2]", "value": 5.55, "unit": "µM"}]}
{"smiles": "C#Cc1cc(C(=O)Oc2ccc(CC(=O)OCOC(C)=O)cc2)cc2c1OC(C)(C)CC2(C)C", "note": "[Compound 3, 8-Ethynyl-2,2,4,4-tetramethyl-chroman-6-carboxylic acid 4-acetoxymethoxycarbonylmethyl-phenyl ester]", "values": [{"measurement": "IC50", "setting": "[1]", "value": 0.5, "unit": "µM"}, {"measurement": "Kd", "setting": "[2]", "value": "> 10", "unit": "µM"}]}
{"smiles": "C#Cc1cc(C(=O)Oc2ccc(CC(=O)O)c(F)c2)cc2c1OC(C)(C)CC2(C)C", "note": "[Compound 4, 8-Ethynyl-2,2,4,4-tetramethyl-chroman-6-carboxylic acid-4-carboxymethyl-3-fluoro-phenyl ester]", "values": [{"measurement": "IC50", "setting": "[1]", "value": 0.1, "unit": "µM"}, {"measurement": "RAR γ (EFFICACY)", "setting": "[3]", "value": 20}, {"measurement": "Kd", "setting": "[2]", "value": 6.56, "unit": "µM"}]}
{"smiles": "C#Cc1cc(C#Cc2ccc(CC(=O)O)cc2)cc2c1OC(C)(C)CC2(C)C", "note": "[Compound 40, [4-(8-Ethynyl-2,2,4,4-tetramethyl-chroman-6-ylethynyl)-phenyl]-acetic acid]", "values": [{"measurement": "IC50", "setting": "[1]", "value": 0.01, "unit": "µM"}, {"measurement": "EC50", "setting": "[3]; first item of cell EC50/(EFFICACY)/Kd, read-out: RAR γ EC50", "value": 0.149, "unit": "µM"}, {"measurement": "RAR γ (EFFICACY)", "setting": "[3]", "value": 30}, {"measurement": "Kd", "setting": "[2]", "value": 7.62, "unit": "µM"}]}
{"smiles": "C#Cc1cc(C(=O)Oc2ccc(CC(=O)O)cc2)cc2c1OC(C)(C)CC2(C)C", "note": "[Compound 1, 8-Ethynyl-2,2,4,4-tetramethyl-chroman-6-carboxylic acid 4-carboxymethyl-phenyl ester]", "values": [{"measurement": "IC50", "setting": "[1]", "value": 0.5, "unit": "µM"}, {"measurement": "Kd", "setting": "[2]", "value": "> 10", "unit": "µM"}]}
{"smiles": "CC1(C)CC(C)(C)c2cc(C(=O)Oc3ccc(CC(=O)O)c(F)c3)cc(C#N)c2O1", "note": "[Compound 32, 8-Cyano-2,2,4,4-tetramethyl-chroman-6-carboxylic acid-4-carboxymethyl-3-fluoro-phenyl ester]", "values": [{"measurement": "IC50", "setting": "[1]", "value": 0.1, "unit": "µM"}, {"measurement": "Kd", "setting": "[2]", "value": "> 10", "unit": "µM"}]}
{"smiles": "C#Cc1cc(C#Cc2ccc(CC(=O)O)c(F)c2)cc2c1OC(C)(C)CC2(C)C", "note": "[Compound 41, [4-(8-Ethynyl-2,2,4,4-tetramethyl-chroman-6-ylethynyl)-2-fluoro-phenyl]-acetic acid]", "values": [{"measurement": "IC50", "setting": "[1]", "value": 0.004, "unit": "µM"}, {"measurement": "RAR γ (EFFICACY)", "setting": "[3]", "value": 20}, {"measurement": "Kd", "setting": "[2]", "value": 4.95, "unit": "µM"}]}
{"smiles": "C#CCc1cc(C#Cc2ccc(CC(=O)O)cc2)cc2c1OC(C)(C)CC2(C)C", "note": "[Compound 49]", "values": [{"measurement": "IC50", "setting": "[1]", "value": 0.018, "unit": "µM"}, {"measurement": "Kd", "setting": "[2]", "value": "> 10", "unit": "µM"}]}
